Measured values taken from the supplement of paper PMC10307832.

Experiments:
Test in all cases: relative viability (nuclei count vs DMSO), 5 days (fraction); higher = more cells survive
[1] = compound: C1CCC(CC1)N(CCNCCC2=C3C(=C(C=C2)O)NC(=O)CO3)C(=O)CCNCCC4=CC(=C(C=C4)Cl)Cl [AZ505] + Cc1cc(Nc2cc(N3CCN(C)CC3)nc(Sc3ccc(NC(=O)C4CC4)cc3)n2)n[nH]1 [Tozasertib] (partner 0.1 µM)
In short: (§1)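 Five library-drug doses in √10 steps were combined with a fixed anchor-drug dose, or a single drug was given alone, by pin tool to lung cancer cell lines in 1536-well plates the day after seeding. Nuclei were stained and counted after 5 days. Relative viability is the nuclei count in treated wells over that in vehicle wells, taken as the median of duplicate plates.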

[2] = compound: C1CCC(CC1)N(CCNCCC2=C3C(=C(C=C2)O)NC(=O)CO3)C(=O)CCNCCC4=CC(=C(C=C4)Cl)Cl [AZ505] + NC(=O)Nc1cc(-c2cccc(F)c2)sc1C(=O)N[C@H]1CCCNC1 [AZD7762] (partner 0.2 µM)
In short: as §1

[3] = compound: C1CCC(CC1)N(CCNCCC2=C3C(=C(C=C2)O)NC(=O)CO3)C(=O)CCNCCC4=CC(=C(C=C4)Cl)Cl [AZ505] + COc1cccc2cc(-c3nc([C@H]4CC[C@H](C(=O)O)CC4)n4ncnc(N)c34)[nH]c12 [OSI-027] (partner 0.5 µM)
In short: as §1

[4] = compound: Cn1c(=O)n(-c2ccc(C(C)(C)C#N)cc2)c2c3cc(-c4cnc5ccccc5c4)ccc3ncc21 [Dactolisib] + Cc1nc(NC(=O)N2CCC[C@H]2C(N)=O)sc1-c1ccnc(C(C)(C)C(F)(F)F)c1 [Alpelisib] (partner 2 µM)
In short: as §1

Cell Line	relative viability ([1]; first compound 0.08 µM)	relative viability ([1]; first compound 0.253 µM)	relative viability ([1]; first compound 0.8 µM)	relative viability ([1]; first compound 2.53 µM)	relative viability ([1]; first compound 8 µM)	relative viability ([2]; first compound 0.08 µM)	relative viability ([2]; first compound 0.253 µM)	relative viability ([2]; first compound 0.8 µM)	relative viability ([2]; first compound 2.53 µM)	relative viability ([2]; first compound 8 µM)	relative viability ([3]; first compound 0.08 µM)	relative viability ([3]; first compound 0.253 µM)	relative viability ([3]; first compound 0.8 µM)	relative viability ([3]; first compound 2.53 µM)	relative viability ([3]; first compound 8 µM)	relative viability ([4]; first compound 0.002 µM)	relative viability ([4]; first compound 0.006325 µM)	relative viability ([4]; first compound 0.02 µM)	relative viability ([4]; first compound 0.06325 µM)	relative viability ([4]; first compound 0.2 µM)
LXF-289	0.2	0.172	0.183	0.21	0.229	1.07	1.04	1.14	1.03	1.16	0.701	0.748	0.763	0.668	0.959	1.12	0.973	1.01	0.927	0.597
ABC-1	0.116	0.185	0.168	0.168	0.167	0.637	0.537	0.918	0.825	0.859	0.469	0.325	0.521	0.493	0.558	1.2	1.01	0.816	0.571	0.431
NCI-H650	0.733	0.705	0.729	0.726	0.736	0.917	0.243	0.879	1.29	0.944	0.503	0.552	0.529	0.671	0.54	1.19	0.964	1.01	0.46	0.507
NCI-H2085	0.663	0.786	0.823	0.825	0.891	0.879	0.966	0.847	0.968	0.954	0.664	0.536	0.733	0.772	0.858	1.05	0.762	0.758	0.437	0.405
NCI-H1793	0.392	0.346	0.386		0.384	0.466	0.513	0.574	0.404	0.407	0.245	0.228	0.344		0.37	0.588	0.4	0.241	0.21	0.157
LC-2-ad	0.478	0.415	0.436	0.411	0.413	0.801	0.821	0.867	0.847	0.832	0.747	0.759	0.629	0.876	0.912	0.916		0.817	0.64	0.533
NCI-H1355	0.57	0.534	0.586	0.534	0.527	0.677	0.474	0.757	0.689	0.858	0.395	0.319	0.384	0.362	0.429	0.941	0.794	0.723	0.385	0.255
H3255	0.639	1.17	0.564	0.503	0.577	0.737	0.883	0.906	0.942	0.957	0.548	0.675	0.617	0.624	0.559	0.767	0.709	0.653	0.481	0.314
